Source: the NIST ThermoML archive (doi:10.1016/j.jct.2004.12.008)

Test: xn = mol fraction of the nth substance listed
Conditions: 101 kPa, Liquid

O=[N+]([O-])c1ccccc1 [nitrobenzene] + Cc1ccccc1
Conditions | mass density [kg/m3]
293.15 K, x2 = 0 | 1202.95
293.15 K, x2 = 0.0629 | 1181.81
293.15 K, x2 = 0.1476 | 1153.37
293.15 K, x2 = 0.2138 | 1131.14
293.15 K, x2 = 0.2787 | 1109.35
293.15 K, x2 = 0.3587 | 1082.5
293.15 K, x2 = 0.4142 | 1063.89
293.15 K, x2 = 0.4831 | 1040.77
293.15 K, x2 = 0.5232 | 1027.31
293.15 K, x2 = 0.5771 | 1009.22
293.15 K, x2 = 0.6321 | 990.75
293.15 K, x2 = 0.6832 | 973.59
293.15 K, x2 = 0.7234 | 960.08
293.15 K, x2 = 0.8032 | 933.21
293.15 K, x2 = 0.8562 | 915.34
293.15 K, x2 = 0.9213 | 893.37
303.15 K, x2 = 0 | 1193.56
303.15 K, x2 = 0.0567 | 1174.37
303.15 K, x2 = 0.1332 | 1148.52
303.15 K, x2 = 0.185 | 1131.03
303.15 K, x2 = 0.2304 | 1115.73
303.15 K, x2 = 0.2798 | 1099.1
303.15 K, x2 = 0.3674 | 1069.64
303.15 K, x2 = 0.4026 | 1057.82
303.15 K, x2 = 0.4656 | 1036.69
303.15 K, x2 = 0.5072 | 1022.73
303.15 K, x2 = 0.5782 | 998.94
303.15 K, x2 = 0.6576 | 972.35
303.15 K, x2 = 0.7235 | 950.27
303.15 K, x2 = 0.7965 | 925.82
303.15 K, x2 = 0.8643 | 903.09
303.15 K, x2 = 0.9354 | 879.23
313.15 K, x2 = 0 | 1183.37
313.15 K, x2 = 0.0674 | 1160.46
313.15 K, x2 = 0.1534 | 1131.33
313.15 K, x2 = 0.1978 | 1116.33
313.15 K, x2 = 0.2576 | 1096.15
313.15 K, x2 = 0.3254 | 1073.34
313.15 K, x2 = 0.3789 | 1055.38
313.15 K, x2 = 0.4577 | 1028.98
313.15 K, x2 = 0.5067 | 1012.59
313.15 K, x2 = 0.5564 | 996
313.15 K, x2 = 0.6134 | 976.98
313.15 K, x2 = 0.674 | 956.78
313.15 K, x2 = 0.7435 | 933.64
313.15 K, x2 = 0.8134 | 910.37
313.15 K, x2 = 0.865 | 893.2
313.15 K, x2 = 0.9134 | 877.09
323.15 K, x2 = 0 | 1172.38
323.15 K, x2 = 0.0479 | 1156.07
323.15 K, x2 = 0.1289 | 1128.59
323.15 K, x2 = 0.1874 | 1108.81
323.15 K, x2 = 0.2671 | 1081.99
323.15 K, x2 = 0.3371 | 1058.51
323.15 K, x2 = 0.3961 | 1038.77
323.15 K, x2 = 0.4628 | 1016.54
323.15 K, x2 = 0.5342 | 992.79
323.15 K, x2 = 0.6056 | 969.11
323.15 K, x2 = 0.6854 | 942.7
323.15 K, x2 = 0.7245 | 929.78
323.15 K, x2 = 0.8056 | 903.01
323.15 K, x2 = 0.8543 | 886.94
323.15 K, x2 = 0.8965 | 873.03
323.15 K, x2 = 0.9423 | 857.93
333.15 K, x2 = 0 | 1160.59
333.15 K, x2 = 0.0575 | 1141.04
333.15 K, x2 = 0.1435 | 1111.97
333.15 K, x2 = 0.2345 | 1081.38
333.15 K, x2 = 0.2978 | 1060.21
333.15 K, x2 = 0.3534 | 1041.68
333.15 K, x2 = 0.4213 | 1019.15
333.15 K, x2 = 0.4896 | 996.55
333.15 K, x2 = 0.5634 | 972.23
333.15 K, x2 = 0.6233 | 952.54
333.15 K, x2 = 0.6856 | 932.12
333.15 K, x2 = 0.7435 | 913.17
333.15 K, x2 = 0.7947 | 896.44
333.15 K, x2 = 0.8634 | 874.02
333.15 K, x2 = 0.9067 | 859.9
333.15 K, x2 = 0.9424 | 848.26
343.15 K, x2 = 0 | 1148
343.15 K, x2 = 0.0523 | 1130.3
343.15 K, x2 = 0.1389 | 1101.17
343.15 K, x2 = 0.1924 | 1083.27
343.15 K, x2 = 0.2684 | 1057.97
343.15 K, x2 = 0.3289 | 1037.94
343.15 K, x2 = 0.3889 | 1018.15
343.15 K, x2 = 0.4521 | 997.4
343.15 K, x2 = 0.5123 | 977.7
343.15 K, x2 = 0.5931 | 951.38
343.15 K, x2 = 0.6532 | 931.86
343.15 K, x2 = 0.7234 | 909.14
343.15 K, x2 = 0.7923 | 886.89
343.15 K, x2 = 0.8534 | 867.19
343.15 K, x2 = 0.8811 | 858.27
343.15 K, x2 = 0.9421 | 838.64
353.15 K, x2 = 0 | 1134.61
353.15 K, x2 = 0.0442 | 1119.76
353.15 K, x2 = 0.1247 | 1092.87
353.15 K, x2 = 0.1842 | 1073.14
353.15 K, x2 = 0.2479 | 1052.11
353.15 K, x2 = 0.2943 | 1036.87
353.15 K, x2 = 0.3479 | 1019.33
353.15 K, x2 = 0.4109 | 998.83
353.15 K, x2 = 0.4671 | 980.61
353.15 K, x2 = 0.5239 | 962.27
353.15 K, x2 = 0.5791 | 944.5
353.15 K, x2 = 0.6321 | 927.5
353.15 K, x2 = 0.7913 | 876.69
353.15 K, x2 = 0.8423 | 860.48
353.15 K, x2 = 0.8742 | 850.36
353.15 K, x2 = 0.9311 | 832.32
